This note sets out measurements from patent US20260215425A1, “NITRIFICATION INHIBITORS” (The University of Melbourne, priority 2022, published 2026).

The assay concerns N. europaea. Kind of assay: O2 consumption measurements. It is filed as cell-based. To be noted: [NH4+] 3 mM, 20° C. The protocol: O2 consumption rates of cell suspensions of N. europaea were measured using a Clark-type oxygen electrode (Rank Brothers, Cambridge, UK) mounted in a water-jacketed electrode chamber (3 mL capacity) that was connected to a recirculating cooler (Lauda, Austria). The data were recorded using a Data-trax™ (World Precision Instruments, UK) sensor data collection system. All measurements were taken at 20° C. and 1 mL final reaction solution volume. The polarizing voltage was set to 0.6 V. To calibrate the oxygen signal, an excess (approximately 50 mg) of Na2S2O4 was added to 1 mL of Milli-Q water to chemically remove dissolved O2. […] The voltage at saturated O2 concentration (“100% O2”) was determined by measuring the voltage of the equilibrated aerated reaction system consisting of 1 mL Milli-Q water. Sample measurements were taken as follows: The 1 mL reaction mixture, composed of 980 μL N. europaea cell solution in NaPB (OD600=0.8; corresponding to approximately 468 μg/L protein) was equilibrated for 5 min in the chamber until the voltage reading was stable. […] After 4 min of oxygen consumption (a linear rate coefficient of approximately kobs=k=274.7+20.0 nmol O2 L^−1 s^−1 was determined), 10 μL of the inhibitor stock solution of MPT in DMSO (1.2 mM and 0.6 mM) were added via a 10-μL Eppendorf pipette through a capillary opening, ensuring the emergence of the pipette tip in the solution. […]

For `C#CCn1cc(C)nn1` [Compound 4-MPT, 4-Methyl-1-(prop-2-yn-1yl)-1H-1,2,3-triazole], the “observed rate coefficient kobs for the O2 consumption” value by setting is: ([MPT]=0.6 mM) 0.0027 s⁻¹; ([MPT]=1.2 mM) 0.0045 s⁻¹.
